From patent US7019034B2, “Compositions and methods for reducing serum glucose and triglyceride levels in diabetic mammals” (Allergan, Inc., priority 2003, dated 2006) come the findings set out here.

The target in one series is T1, RXRα (Homo sapiens, UniProt P19793).
T1 construct: expressed in transfected cells
T1 sequence (P19793 1-462): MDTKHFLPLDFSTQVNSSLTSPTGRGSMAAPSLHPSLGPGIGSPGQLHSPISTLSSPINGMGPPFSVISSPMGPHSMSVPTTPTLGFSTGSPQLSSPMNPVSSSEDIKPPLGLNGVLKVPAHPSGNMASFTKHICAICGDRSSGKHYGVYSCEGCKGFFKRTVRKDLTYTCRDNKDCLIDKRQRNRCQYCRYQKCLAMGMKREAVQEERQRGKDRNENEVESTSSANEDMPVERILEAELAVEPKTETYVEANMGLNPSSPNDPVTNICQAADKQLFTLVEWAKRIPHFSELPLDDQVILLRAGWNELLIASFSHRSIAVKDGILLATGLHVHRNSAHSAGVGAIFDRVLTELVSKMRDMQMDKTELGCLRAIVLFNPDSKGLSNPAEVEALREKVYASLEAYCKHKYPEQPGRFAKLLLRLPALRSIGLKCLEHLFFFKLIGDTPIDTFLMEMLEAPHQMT
The series can be described thus: holoreceptor transactivation assay, RXRα. Conditions: number in brackets. The format is cell-based. From the text: A holoreceptor transactivation assay and a ligand binding assay which measure the antagonist/agonist like activity of the compounds of the invention, or their ability to bind to the several retinoid receptor subtypes, respectively, are described in published PCT Application No. WO WO93/11755 (particularly on pages 30–33 and 37–41) published on Jun. 24, 1993, the specification of which is also incorporated herein by reference. […] The results obtained in this assay are expressed in EC50 numbers, as they are also in the chimeric receptor transactivation assay. The results of the ligand binding assay are expressed in Ki numbers. (See Cheng et al. Biochemical Pharmacology Vol. 22 pp 3099–3108, expressly incorporated herein by reference.)
(§1) Particularly, the transactivation data pertaining to activation of the RAR receptors were obtained in the chimeric assay, and the transactivation data pertaining to the activation of RXR receptors were obtained in the holoreceptor assay.
(§2) In Table 1 NA stands for not active at all as an agonist. ND stands for not determined. The first row of numbers pertaining to each compound is the measured EC50 number. […] The third row of numbers pertaining to each compound is the binding Ki number.

Another series concerns the target T2, RXRβ (UniProt P28704).
T2 sequence (P28704 1-520): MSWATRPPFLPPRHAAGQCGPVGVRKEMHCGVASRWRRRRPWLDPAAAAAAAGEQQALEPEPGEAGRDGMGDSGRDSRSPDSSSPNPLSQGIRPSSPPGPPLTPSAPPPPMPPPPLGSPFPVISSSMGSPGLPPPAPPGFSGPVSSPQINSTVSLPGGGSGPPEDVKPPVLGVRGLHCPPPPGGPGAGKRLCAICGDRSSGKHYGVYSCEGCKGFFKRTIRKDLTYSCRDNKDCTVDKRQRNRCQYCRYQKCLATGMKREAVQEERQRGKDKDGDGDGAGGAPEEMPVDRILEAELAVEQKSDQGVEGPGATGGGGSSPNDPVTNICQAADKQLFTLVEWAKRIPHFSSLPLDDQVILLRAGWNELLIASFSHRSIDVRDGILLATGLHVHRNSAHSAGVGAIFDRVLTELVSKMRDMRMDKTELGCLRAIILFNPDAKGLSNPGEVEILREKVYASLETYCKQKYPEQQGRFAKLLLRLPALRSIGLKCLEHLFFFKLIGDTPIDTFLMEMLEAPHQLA
The series can be described thus: holoreceptor transactivation assay, RXRβ. The format is cell-based.
Text: The results obtained in this assay are expressed in EC50 numbers, as they are also in the chimeric receptor transactivation assay. The results of the ligand binding assay are expressed in Ki numbers.
as §1, §2

Series [1] has as its system diabetic db/db mice. In words: serum glucose in diabetic db/db mice, 7 days oral dosing. The class given is in vivo. Conditions: for Glucose: 10 mg/kg once daily oral gavage, mean +/- SD. The protocol: (§3) Effects of RXR agonists on serum glucose and triglyceride were studied in diabetic db/db mice. […] Briefly, animals were dosed once daily by oral gavage using corn oil vehicle for a period of 7 consecutive days. Serum samples were collected on day 1 (first day of dosing) and day 7 at hour 0 (immediately prior to dosing) and hour 3 (approximately 3 hours after dosing). Serum glucose and triglyceride levels of these samples were measured as described in the reference manuals: Glucose/HK. Boehringer Mannheim Corporation, 9115 Hague Road, Indianapolis, Ind., USA and Triglycerides/GPO. Roche Diagnostics Corporation, 9115 Hague Road, Indianapolis, Ind., USA, expressly incorporated herein. Only those animals with glucose levels of higher than 300 mg/dl at 0 hour on day 1 were considered as diabetic and included in data analysis.
(§4) A measured amount of dosing solution was withdrawn into a metal feeding tube attached to a marked syringe. Animals were restrained by grasping of their back skin while the feeding tube was gently inserted into their mouth and into esophagus. A fixed amount of the dosing solution was displaced into the esophagus/stomach of the animal by pushing the plunger of the syringe. Serum samples were collected from the retro-orbital sinus while the animals were anesthetized. These samples were analyzed by using commercially available kits from Boehringer Manheim for their glucose levels and Roche Diagnostics for their triglyceride levels in a Boehringer Manheim Hatachi Clinical Chemistry Analyzer.
(§5) For glucose assay, an enzymatic reaction using hexokinase and glucose-6-phosphodehydrogenase to catalyze glucose to gluconate-6phosphate and NADPH was employed. The amount of NADPH formed during these reactions was equivalent to the amount of glucose in the serum and was measured with a spectrophotometer. For triglycerides, a series of enzymatic reactions which included lipase, glycerol kinase and glycerol phosphate oxidase to formed dihydroacetone phosphate and peroxidase. The peroxidase produced catalyzed a reaction between peroxide and 4-aminophenazone and 4-chlorophenol in a Trinder reaction to generate a color change. This color change was measured by a spectrophotometer and reflected the amount of triglyceride in the sample.

The subject of series [2] is diabetic db/db mice. In words: serum triglycerides in diabetic db/db mice, 7 days oral dosing. The format is in vivo. As to conditions: for Triglycerides: 10 mg/kg once daily oral gavage, mean +/- SD. How it is done:
as §3, §4, §5

The test system of a further series is young db/db mice. The series can be described thus: serum thyroxine (T4) in young db/db mice, 14 days oral dosing. The format is in vivo. The protocol:
In another study the efficacy of RXR agonists in the prevention of diabetes was tested in young db/db mice. […] Serum samples were analyzed by using commercially available kits from Boehring Manheim for their thyroxine (T4) levels in a Boehringer Manheim Hatachi Clinical Chemistry Analyzer as described in the reference manual of Boehringer Mannheim Corporation, 9115 Hague Road, Indianapolis, Ind., USA, expressly incorporated herein.

Where [3] appears, read: Day 1, 0 hr (immediately prior to dosing).

`CC(/C=C/[C@@H]1C[C@]1(C)c1ccc2c(c1)C(C)(C)CCC2(C)C)=C\C(=O)O` [Standard compound, (2E,4E,1′S,2′S)-3-methyl-5-[2′-methyl-2′-(5,5,8,8-tetramethyl-5,6,7,8-tetrahydro-naphthalen-2-yl)-cyclopropyl]-penta-2,4-dienoic acid, reference compound]: the “RXR α efficacy in percentage as compared to the standard compound” value at RXRα turned out to be 100%. Besides, the “RXR β efficacy in percentage as compared to the standard compound” value at RXRβ is recorded as 0.4(100)1%. Moreover, the “efficacy in activating RXRβ compared with RXRα and RXRγ subtypes (in words)” value on RXRβ is “approximately equally efficacious in activating the RXRα, RXRβ and RXRγ subtypes”. Also, the Glucose in the series with diabetic db/db mice [1] (setting [3]) was 501 ± 87 mg/dL; with diabetic db/db mice [1] (Day 1, 3 hr) it was 403 ± 86 mg/dL; in the series with diabetic db/db mice [1] (Day 7, 0 hr) it was 367 ± 101 mg/dL; with diabetic db/db mice [1] (Day 7, 3 hr) it was 301 ± 40 mg/dL. For the same compound, the “effect on serum glucose in diabetic mouse (in words)” value in the series with diabetic db/db mice [1] (mouse, in vivo) is recorded as “capable of lowering serum glucose”. The Triglycerides is 183 ± 50 mg/dL in the series on diabetic db/db mice [2] (setting [3]); 220 ± 87 mg/dL in the series with diabetic db/db mice [2] (Day 1, 3 hr); 137 ± 32 mg/dL with diabetic db/db mice [2] (Day 7, 0 hr). For the same compound, in the series with diabetic db/db mice [2] (mouse, in vivo), the “effect on serum triglyceride (in words)” value was “induces hypertriglyceridemia”. In the series on young db/db mice (5 mg/kg orally for 14 days, mean +/- SD (n = 7)), the Serum thyroxine turned out to be 0.83 ± 0.29 µg/dL. For the same compound, the “effect on serum T4 (in words)” value in the series on young db/db mice (mouse, in vivo) is “lowering serum T4”.
